Data as given in patent US20250025451A1, “TREATMENT OF CANCER WITH KDM4 INHIBITORS” (Celgene Corporation, priority 2021, published 2025).
Several values for one entry are separate records, joined by “and”; a condition that tells them apart may be missing. Identical values can stand only once. Like-named read-outs stand apart in the source and are kept apart here.

Assays:
MCF-7 = assay: cell-proliferation assay (MTS), MCF-7; type: cell-based; settings: MCF-7, human breast carcinoma
Experimental: (§1) Compound 1 was evaluated in in vitro cell-proliferation assays (BrdU assay, MTS assay, or Cell Titer Glo (CTG) assay) in multiple cancer cell lines and patient-derived organoid models to determine half-maximal inhibitory concentrations (IC50s).
(§2) Viability and BrdU thymidine incorporation assays were performed in multiwell plates seeded with cells in growth medium. After seeding, multiwell plates were cultured for 24 hours in a humidified incubator at 37° C. to promote adherence. […] The cultures were incubated for 168 hours after which the number of viable cells or the amount of thymidine incorporation in each test well was assessed by the methods as indicated above. Readouts were performed using an EnVision® Multilabel Reader (PerkinElmer, Waltham, MA) and the results were expressed as a percent of the negative control. Percent of Control values were plotted against the corresponding Compound 1 concentration and the relative IC50 value was determined from a non-linear regression curve as the concentration where inhibition was half-maximal. For cell lines where the number of IC50 determinations exceeded one, the IC50 was expressed as the mean IC50±SD.
(§3) Half-maximal inhibitory concentration (IC50) values for Compound 1 inhibition of cell proliferation were determined for nine cancer cell lines and one normal human fibroblastcell line.

IMR-90 = assay: cell-proliferation assay (BrdU, CTG), IMR-90 normal fibroblast; type: cell-based; settings: IMR-90, (normal) human fetal lung fibroblast, 168 hours
Experimental: as §1, §2, §3

HT-29 = assay: cell-proliferation assay (BrdU, CTG), HT-29; type: cell-based; settings: HT-29, human colorectal adenocarcinoma, mean
Experimental: as §1, §2, §3

[1] = system: SU34 patient-derived colon cancer organoid model; assay: organoid colony formation assay, SU34; type: cell-based, human
Experimental: (§4) The IC50 values for Compound 1 inhibition of colony formation and viability were determined for the patient-derived colon cancer organoid models: SU60, T002C, SU62, SU34, SU103, T03SC, and SU106, patient-derived pancreatic cancer organoid models PA016SF, PA0143F, T016P, and T028P, and a patient-derived breast cancer organoid model FS5S3.
(§5) Colony formation and viability assays were performed in multiwell plates seeded with organoids using an in vitro culture system composed of a Matrigel layer, media containing a defined set of growth factors, and co-culture with Wnt3 A-secreting mouse embryonic fibroblasts. Assays were initiated by adding either DMSO as a negative control, or an inhibitor panobinostatat 100×IC50 concentration as a positive control, or serially diluted Compound 1. The cultures were incubated for 168 or 144 hours after which the number of viable organoids in each test well was assessed respectively using one of two detection methods: CTG or staining with calcein-AM followed by imaging and colony counting. Colony count or viability of cells treated with compound 1 was expressed as a percent of the negative control. Aggregated Percent of Control values were plotted against the corresponding Compound 1 concentration and the absolute IC50 value was determined from a non-linear regression curve as the concentration where inhibition was 50% of the control.

[2] = system: myeloid hematopoietic progenitor cells derived from human bone marrow; assay: myeloid colony formation of hematopoietic progenitor cells; type: cell-based
Experimental: Compound 1 was evaluated for its effects on proliferation of erythroid and myeloid hematopoietic progenitor cells derived from human bone marrow at […] Technologies Inc. (Vancouver, BC, Canada).
Cells were thawed rapidly at 37° C. into DNAse I and then diluted in 10 mL of Iscove's Modified Dulbecco's medium containing 2% fetal bovine serum (IMDM+2% FBS) and washed by centrifugation (1200 rpm for 10 minutes at room temperature). The supernatant was discarded and the cell pellet resuspended in a known volume of IMDM+2% FBS. A nucleated cell count (3% glacial acetic acid) and viability assessment (trypan blue exclusive test) were performed.
Compound 1 and positive control (panobinostat) were diluted in DMSO and tested at concentrations ranging from 0.002 μM to 5 μM in final media. These dilutions provided the appropriate final test concentrations required for the test and control articles ([…], and 0.002 μM).
Test and control articles were incubated with human bone marrow hematopoietic progenitor cells. After 14 days, cell colonies were assessed.
To calculate the concentration of 50% and 90% inhibition of colony growth (IC50 and IC90) for each test article, a dose response curve was generated plotting the log of the test article concentration versus the percentage of control colony growth using GraphPad Prism. […] The IC50 and IC90 values for both test and control articles were derived from an interpolation of the curve fit. In cases where the IC50/90 value reported by GraphPad Prism is a value beyond the range of concentrations that were actually tested, if this value is more than 4 times the highest concentration tested, or where GraphPad Prism cannot calculate an IC50/90 value, notations of >5 μM (for test article compound 1) are used.

[3] = system: FS53 patient-derived breast cancer organoid model; assay: organoid colony formation assay, FS53; type: cell-based, human
Experimental: as §4, §5

[4] = system: colorectal cancer organoid PDX models; assay: culture-based viability inhibition assay, colorectal cancer organoid PDX models; type: cell-based; settings: for Sensitive to Compound 1 (models sensitive/tested): sensitive = IC50<1 μM
Experimental: A panel of 13 colorectal cancer PDX models and 6 colorectal cancer organoid PDX models were tested for their sensitivity to Compound 1 in culture-based viability inhibition assays. The MSI-H status of the studied colorectal cancer cell lines and their respective mutations of the MMR path genes are shown in FIG. 19.

KDM4 = assay: inhibition of H3K9me3 demethylation, TR-FRET LANCE detection; type: biochemical; settings: in the presence of α-KG
Experimental: Inhibition of […] demethylation was measured at various Compound 1 concentrations in the presence of α-KG using time-resolved fluorescence-based (TR-FRET) LANCE® detection.

[5] = MSS (Organoid) colorectal cancer models

## CC(C)c1ccc(N(C)c2ccc3c(c2)OCC[C@H]3CNc2cnccc2C(=O)O)cc1 [Compound 1, 3-({[(4R)-7-{methyl[4-(propan-2-yl)phenyl]amino}-3,4-dihydro-2H-1-benzopyran-4-yl]methyl}amino)pyridine-4-carboxylic acid]
MCF-7; Homo sapiens, MCF7, 168 h
  IC50: < 40 nM
MCF-7; 168 hours
  IC50: 37 nM
IMR-90
  IC50: > 1000 nM
HT-29; 168 hours
  IC50: 23.5 nM
HT-29; Homo sapiens, HT-29, 168 h
  IC50: < 40 nM
[1]; Homo sapiens, SU34 colorectal carcinoma model
  IC50: > 10000 nM
[1]; SU34 human colorectal carcinoma organoid, 144 hrs, Colony Counts
  IC50: > 10000 nM
[2]; 336 h, human bone marrow progenitor cells, 14 days, read-out: IC50, inhibition of myeloid colony formation
  IC50: > 5000 nM
[2]; 336 h, human bone marrow progenitor cells, colony growth after 14 days
  IC90: > 5 µg/mL
[2]; 336 h, human bone marrow progenitor cells, colony growth after 14 days, read-out: Myeloid IC50
  IC50: > 5 µg/mL
[2]; myeloid derived colonies
  concentrations at which colony morphology (size and density) was slightly compromised: ≥ 1.67 μM
[2]; progenitor cells from normal human bone marrow, p>0.01
  effect on colony formation compared to 0.1% DMSO: no significant effect
[3]; FS53 human breast carcinoma model
  IC50: 13600 nM
[3]; FS53 human breast carcinoma organoid, 144 hrs, Colony Counts
  IC50: 13600 nM
[4]; MSI (Organoid) colorectal cancer models, read-out: IC50 (range over sensitive models)
  IC50: 22 to 149 nM
[4]; MSI (Organoid) colorectal cancer models
  Sensitive to Compound 1 (models sensitive/tested): 3 out of 3 and 3/3
[4]; [5]
  Sensitive to Compound 1 (percent of models): (0%)
  Sensitive to Compound 1 (models sensitive/tested): 0 out of 3 and 0/3
[4]; MSS (Organoid) colorectal cancer models, read-out: IC50
  IC50: > 10000 nM
KDM4
  mode of inhibition of H3K9me3 demethylation: reversible and competitive inhibition
